molecular target: T1, ΔF508-CFTR (Homo sapiens, UniProt P13569, DEL508-508); assay: Membrane potential optical assay (FRET voltage-sensor dyes, VIPR), identification of potentiator compounds; assay type: cell-based; conditions: Table 3; assay not given
T1 construct: expressed in transfected cells
Procedure, shortened: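 Potentiator screen measured membrane potential via FRET between CC2-DMPE donor and DiSBAC2(3), read on VIPR II. Compound went in with the first addition of chloride-free gluconate bath; cells were ΔF508-CFTR-expressing NIH3T3 mouse fibroblasts, temperature-corrected at 27 °C for 24 h.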

T1 sequence (P13569 with tags, fused parts or gaps DEL508-508): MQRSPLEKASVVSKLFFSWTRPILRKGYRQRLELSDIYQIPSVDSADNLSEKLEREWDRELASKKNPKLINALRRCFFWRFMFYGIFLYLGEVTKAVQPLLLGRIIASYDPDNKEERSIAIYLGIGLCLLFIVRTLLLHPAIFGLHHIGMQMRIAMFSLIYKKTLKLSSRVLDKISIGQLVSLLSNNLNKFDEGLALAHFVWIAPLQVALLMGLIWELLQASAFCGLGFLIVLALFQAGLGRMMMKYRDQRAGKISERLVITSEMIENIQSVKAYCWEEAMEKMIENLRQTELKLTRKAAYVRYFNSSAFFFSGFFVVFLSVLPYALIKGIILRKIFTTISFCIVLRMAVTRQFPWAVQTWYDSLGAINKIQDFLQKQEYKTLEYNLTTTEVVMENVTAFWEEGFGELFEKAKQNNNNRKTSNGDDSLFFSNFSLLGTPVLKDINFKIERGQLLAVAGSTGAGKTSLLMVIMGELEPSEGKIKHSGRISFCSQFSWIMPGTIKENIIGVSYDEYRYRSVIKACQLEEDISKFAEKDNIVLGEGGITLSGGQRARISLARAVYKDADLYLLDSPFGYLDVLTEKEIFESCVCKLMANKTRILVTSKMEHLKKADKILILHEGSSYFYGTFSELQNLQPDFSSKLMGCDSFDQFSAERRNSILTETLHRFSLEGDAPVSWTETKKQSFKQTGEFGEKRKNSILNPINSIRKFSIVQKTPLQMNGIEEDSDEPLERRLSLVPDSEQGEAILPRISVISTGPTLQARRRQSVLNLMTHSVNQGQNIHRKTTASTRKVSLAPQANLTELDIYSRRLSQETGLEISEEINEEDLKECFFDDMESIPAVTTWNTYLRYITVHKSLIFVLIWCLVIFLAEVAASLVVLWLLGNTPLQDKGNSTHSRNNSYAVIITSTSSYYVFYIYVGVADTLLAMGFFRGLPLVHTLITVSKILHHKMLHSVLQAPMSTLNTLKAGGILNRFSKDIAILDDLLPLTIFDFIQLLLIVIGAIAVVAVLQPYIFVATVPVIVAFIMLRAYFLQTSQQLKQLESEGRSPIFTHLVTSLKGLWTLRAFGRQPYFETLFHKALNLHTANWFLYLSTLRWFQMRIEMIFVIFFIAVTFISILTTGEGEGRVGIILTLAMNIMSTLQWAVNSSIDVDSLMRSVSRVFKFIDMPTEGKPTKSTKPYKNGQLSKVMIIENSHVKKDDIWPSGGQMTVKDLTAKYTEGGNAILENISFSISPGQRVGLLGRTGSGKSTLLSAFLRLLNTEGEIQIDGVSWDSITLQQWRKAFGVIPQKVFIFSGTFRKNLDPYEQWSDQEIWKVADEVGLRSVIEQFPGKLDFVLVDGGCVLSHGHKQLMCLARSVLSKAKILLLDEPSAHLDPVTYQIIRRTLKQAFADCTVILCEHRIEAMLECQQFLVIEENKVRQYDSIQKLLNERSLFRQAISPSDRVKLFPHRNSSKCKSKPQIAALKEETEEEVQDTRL

| EC50 [µM] | SMILES |
| --- | --- |
| < 10 | CCOC(=O)Nc1ccc(CC)c(NC(=O)c2c[nH]c3ccccc3c2=O)c1 [Compound 472, [4-ethyl-3-[(4-oxo-1H-quinolin-3-yl)carbonylamino]phenyl]aminoformic acid ethyl ester] |
| < 10 | CCCc1ccc(N)cc1NC(=O)c1c[nH]c2ccccc2c1=O [Compound 41, N-(5-amino-2-propyl-phenyl)-4-oxo-1H-quinoline-3-carboxamide] |

same assay, conditions: Table 3; assay not given; read-out: % Activity (% Efficacy, relative efficacy)

| Emax [%] | SMILES |
| --- | --- |
| 25 to 100 | O=C(Nc1ccccc1-c1ccc(Cl)c(Cl)c1)c1c[nH]c2ccccc2c1=O [Compound 85, N-[2-(3,4-dichlorophenyl)phenyl]-4-oxo-1H-quinoline-3-carboxamide] |
| 25 to 100 | COc1cc(NC(=O)c2c[nH]c3ccccc3c2=O)cc2ccccc12 [Compound 717, N-(4-methoxy-2-naphthyl)-4-oxo-1H-quinoline-3-carboxamide] |
| 25 to 100 | Cc1ccc(-c2ccccc2NC(=O)c2c[nH]c3ccccc3c2=O)cc1C [Compound 261, N-[2-(3,4-dimethylphenyl)phenyl]-4-oxo-1H-quinoline-3-carboxamide] |
| 25 to 100 | N#Cc1cc2ccc(NC(=O)c3c[nH]c4ccccc4c3=O)cc2[nH]1 [Compound 270, N-(2-cyano-1H-indol-6-yl)-4-oxo-1H-quinoline-3-carboxamide] |
| 25 to 100 | O=C(Nc1ccccc1-c1ccc(CO)cc1)c1c[nH]c2ccccc2c1=O [Compound 302, N-[2-[4-(hydroxymethyl)phenyl]phenyl]-4-oxo-1H-quinoline-3-carboxamide] |
| 25 to 100 | CC(C)(C)c1ccc(NC(=O)c2c[nH]c3ccccc3c2=O)cc1 [Compound 448, 4-oxo-N-(4-tert-butylphenyl)-1H-quinoline-3-carboxamide] |
| < 25 | O=C(Nc1ccc2[nH]c(=O)[nH]c2c1)c1c[nH]c2ccccc2c1=O [Compound 64, 4-oxo-N-(2-oxo-1,3-dihydrobenzoimidazol-5-yl)-1H-quinoline-3-carboxamide] |
| 25 to 100 | O=C(Nc1ccc2[nH]ncc2c1)c1c[nH]c2ccccc2c1=O [Compound 217, N-(1H-indazol-5-yl)-4-oxo-1H-quinoline-3-carboxamide] |
| 25 to 100 | O=C(Nc1cccc(-c2cccs2)c1)c1c[nH]c2ccccc2c1=O [Compound 549, 4-oxo-N-[3-(2-thienyl)phenyl]-1H-quinoline-3-carboxamide] |
| < 25 | O=C(Nc1cccc2[nH]ccc12)c1c[nH]c2ccccc2c1=O [Compound 100, N-(1H-indol-4-yl)-4-oxo-1H-quinoline-3-carboxamide] |
| 25 to 100 | O=C(Nc1ccccc1-c1ccc(F)cc1)c1c[nH]c2ccccc2c1=O [Compound 182, N-[2-(4-fluorophenyl)phenyl]-4-oxo-1H-quinoline-3-carboxamide] |
| 25 to 100 | Cc1cccc(NC(=O)c2c[nH]c3ccccc3c2=O)c1 [Compound 449, N-(m-tolyl)-4-oxo-1H-quinoline-3-carboxamide] |
| 25 to 100 | O=C(Nc1ccc(-c2ccccc2)cc1)c1c[nH]c2ccccc2c1=O [Compound 397, 4-oxo-N-(4-phenylphenyl)-1H-quinoline-3-carboxamide] |
| 25 to 100 | CC(C)(C)c1cccc(NC(=O)c2c[nH]c3ccccc3c2=O)c1 [Compound 602, 4-oxo-N-(3-tert-butylphenyl)-1H-quinoline-3-carboxamide] |
| 25 to 100 | O=C(Nc1ccccc1-c1ccc(F)c(Cl)c1)c1c[nH]c2ccccc2c1=O [Compound 190, N-[2-(3-chloro-4-fluoro-phenyl)phenyl]-4-oxo-1H-quinoline-3-carboxamide] |

The next lines start with the molecule.

| SMILES | Emax [%] |
| --- | --- |
| CCOc1ccc2[nH]cc(C(=O)Nc3cc(O)c(C(C)(C)C)cc3C(C)(C)C)c(=O)c2c1 [Compound 524, 6-ethoxy-N-(5-hydroxy-2,4-ditert-butyl-phenyl)-4-oxo-1H-quinoline-3-carboxamide] | 25 to 100 |
| CCOC(=O)Nc1ccc(CC)c(NC(=O)c2c[nH]c3ccccc3c2=O)c1 [Compound 472, [4-ethyl-3-[(4-oxo-1H-quinolin-3-yl)carbonylamino]phenyl]aminoformic acid ethyl ester] | 25 to 100 |
| CC(C)(C)c1ccc(N)cc1NC(=O)c1c[nH]c2ccccc2c1=O [Compound 260, N-(5-Amino-2-tert-butyl-phenyl)-4-oxo-1H-quinoline-3-carboxamide] | 25 to 100 |
| Cc1cccc(C(C)C)c1NC(=O)c1c[nH]c2ccccc2c1=O [Compound 430, N-(2-isopropyl-6-methyl-phenyl)-4-oxo-1H-quinoline-3-carboxamide] | 25 to 100 |
| O=C(Nc1ccc(OC(F)(F)F)c(N2CCCCC2)c1)c1c[nH]c2ccccc2c1=O [Compound 696, 4-oxo-N-[3-(1-piperidyl)-4-(trifluoromethoxy)phenyl]-1H-quinoline-3-carboxamide] | 25 to 100 |
| O=C(Nc1ccc(OC(F)F)cc1)c1c[nH]c2ccccc2c1=O [Compound 360, N-[4-(difluoromethoxy)phenyl]-4-oxo-1H-quinoline-3-carboxamide] | 25 to 100 |
| CC(C)(C)c1cc(F)c(NC(=O)c2c[nH]c3cccc(O)c3c2=O)cc1O [Compound 407, N-(2-fluoro-5-hydroxy-4-tert-butyl-phenyl)-5-hydroxy-4-oxo-1H-quinoline-3-carboxamide] | 25 to 100 |
| CCC(CC)(CC)c1cc(F)c(NC(=O)c2cnc3ccccc3c2O)cc1O [Compound 34, N-[4-(1,1-diethylpropyl)-2-fluoro-5-hydroxy-phenyl]-4-hydroxy-quinoline-3-carboxamide] | 25 to 100 |
| CC(=O)N1CC2(CC2)c2ccc(NC(=O)c3c[nH]c4ccccc4c3=O)cc21 [Compound 175, 4-Oxo-1,4-dihydro-quinoline-3-carboxylic acid N-(1′-Acetyl-1′,2′-dihydrospiro[cyclopropane-1,3′-3H-indol]-6′-yl)-amide] | 25 to 100 |
| CC(C)c1ccc(NC(=O)OC(C)(C)C)cc1NC(=O)c1c[nH]c2ccccc2c1=O [Compound 60, [4-isopropyl-3-[(4-oxo-1H-quinolin-3-yl)carbonylamino]phenyl]aminoformic acid tert-butyl ester] | 25 to 100 |
| CCC(C)c1ccc(NC(=O)c2c[nH]c3ccccc3c2=O)cc1 (stereo not drawn) [Compound 310, 4-oxo-N-(4-sec-butylphenyl)-1H-quinoline-3-carboxamide] | 25 to 100 |
| CC(C)(C)OC(=O)N1CCCc2ccc(NC(=O)c3c[nH]c4ccccc4c3=O)cc21 [Compound 183, 7-[(4-oxo-1H-quinolin-3-yl)carbonylamino]-1,2,3,4-tetrahydroquinoline-1-carboxylic acid tert-butyl ester] | 25 to 100 |
| CC(C)(CNC(=O)OCC1CCOC1)c1ccc(NC(=O)c2c[nH]c3ccccc3c2=O)cc1 (stereo not drawn) [Compound 396, [2-methyl-2-[4-[(4-oxo-1H-quinolin-3-yl)carbonylamino]phenyl]-propyl]aminoformic acid tetrahydrofuran-3-ylmethyl ester] | 25 to 100 |
| N#Cc1c(Cl)cccc1NC(=O)c1c[nH]c2ccccc2c1=O [Compound 222, N-(3-chloro-2-cyano-phenyl)-4-oxo-1H-quinoline-3-carboxamide] | 25 to 100 |
| CC(C)(C)c1cc(C(C)(C)C)c(NC(=O)c2c[nH]c3c(F)ccc(F)c3c2=O)cc1O [Compound 718, 5,8-difluoro-N-(5-hydroxy-2,4-ditert-butyl-phenyl)-4-oxo-1H-quinoline-3-carboxamide] | 25 to 100 |
| CCOc1cccc2c(=O)c(C(=O)Nc3ccc(C(C)C)cc3C(F)(F)F)c[nH]c12 [Compound 517, 8-ethoxy-N-[4-isopropyl-2-(trifluoromethyl)phenyl]-4-oxo-1H-quinoline-3-carboxamide] | < 25 |
| O=C(Nc1ccc(C(F)(F)F)cc1Cl)c1c[nH]c2ccc(F)cc2c1=O [Compound 636, N-[2-chloro-4-(trifluoromethyl)phenyl]-6-fluoro-4-oxo-1H-quinoline-3-carboxamide] | < 25 |
| CC(C)(C)c1cc(C(C)(C)C)c(NC(=O)c2c[nH]c3ccc(F)cc3c2=O)cc1O [Compound 103, 6-fluoro-N-(5-hydroxy-2,4-ditert-butyl-phenyl)-4-oxo-1H-quinoline-3-carboxamide] | > 100 |
| COC(=O)c1c(NC(=O)c2c[nH]c3ccccc3c2=O)csc1C(C)(C)C [Compound 690, methyl 4-[(4-oxo-1H-quinolin-3-yl)carbonylamino]-2-tert-butyl-thiophene-3-carboxylate] | 25 to 100 |
| CCCc1ccccc1NC(=O)c1c[nH]c2ccccc2c1=O [Compound 16, 4-oxo-N-(2-propylphenyl)-1H-quinoline-3-carboxamide] | 25 to 100 |
| O=C(Nc1ccc(C(F)(F)F)cn1)c1c[nH]c2ccccc2c1=O [Compound 74, 4-oxo-N-[5-(trifluoromethyl)-2-pyridyl]-1H-quinoline-3-carboxamide] | < 25 |
| CCCc1ccc(N)cc1NC(=O)c1c[nH]c2ccccc2c1=O [Compound 41, N-(5-amino-2-propyl-phenyl)-4-oxo-1H-quinoline-3-carboxamide] | 25 to 100 |
| CCc1ccc(NC(=O)c2c[nH]c3ccccc3c2=O)cc1NC(=O)OC [Compound 129, [2-ethyl-5-[(4-oxo-1H-quinolin-3-yl)carbonylamino]phenyl]aminoformic acid methyl ester] | 25 to 100 |
| CCCCOc1ccccc1NC(=O)c1c[nH]c2ccccc2c1=O [Compound 177, N-(2-butoxyphenyl)-4-oxo-1H-quinoline-3-carboxamide] | > 100 |
| O=C(Nc1cccc2c1CCC2)c1c[nH]c2ccccc2c1=O [Compound 373, N-indan-4-yl-4-oxo-1H-quinoline-3-carboxamide] | 25 to 100 |
| O=C(Nc1ccc2c(c1)OC(F)(F)C(F)(F)O2)c1c[nH]c2ccccc2c1=O [Compound 440, N-(2,2,3,3-tetrafluoro-2,3-dihydrobenzo[b][1,4]dioxin-6-yl)-1,4-dihydro-4-oxoquinoline-3-carboxamide] | 25 to 100 |
| CCc1cccc2c(=O)c(C(=O)Nc3ccc(C(C)C)cc3C(F)(F)F)c[nH]c12 [Compound 682, 8-ethyl-N-[4-isopropyl-2-(trifluoromethyl)phenyl]-4-oxo-1H-quinoline-3-carboxamide] | < 25 |
| CC(C)c1ccc(N)cc1NC(=O)c1c[nH]c2ccccc2c1=O [Compound 101, N-(5-amino-2-isopropyl-phenyl)-4-oxo-1H-quinoline-3-carboxamide] | 25 to 100 |

Source: patent publication US8802700B2 (Vertex Pharmaceuticals Incorporated, priority 2010, dated 2014)
